Data: ChEMBL document CHEMBL3045812, “Synthesis of fatty acid Schiff base esters as potential antimicrobial and chemotherapeutic agents” (Med Chem Res, 2013)
Values after ≈ are worked out from the molar mass of the structure shown. Active and inactive are the calls of the source. The rule behind the calls is not given here.

Assays:
[1] = tested on: Candida albicans; test: Antifungal activity against Candida albicans MTCC 7315 after 24 hr by microtiter broth dilution method; assay type: functional; settings: MTCC 7315, 24 h
[2] = tested on: Candida albicans; test: Antifungal activity against Candida albicans MTCC 227 after 24 hr by microtiter broth dilution method; assay type: functional; settings: MTCC 227, 24 h
[3] = tested on: Candida albicans; test: Antifungal activity against Candida albicans MTCC 854 after 24 hr by microtiter broth dilution method; assay type: functional
[4] = tested on: Raoultella planticola; test: Antibacterial activity against Raoultella planticola MTCC 530 at 1.4 to 300 ug/ml after 24 hr by microtiter broth dilution method; assay type: functional, organism-based
[5] = tested on: Escherichia coli; test: Antibacterial activity against Escherichia coli MTCC 739 at 1.4 to 300 ug/ml after 24 hr by microtiter broth dilution method; assay type: functional, organism-based
[6] = tested on: Micrococcus luteus; test: Antibacterial activity against Micrococcus luteus MTCC 2470 at 1.4 to 300 ug/ml after 24 hr by microtiter broth dilution method; assay type: functional, organism-based
[7] = tested on: Pseudomonas aeruginosa; test: Antibacterial activity against Pseudomonas aeruginosa MTCC 2453 after 24 hr by microtiter broth dilution method; assay type: functional
[8] = tested on: Staphylococcus aureus; test: Antibacterial activity against Staphylococcus aureus MLS16 MTCC 2940 after 24 hr by microtiter broth dilution method; assay type: functional; settings: MLS16 MTCC 2940, 24 h
[9] = tested on: Bacillus subtilis; test: Antibacterial activity against Bacillus subtilis MTCC 121 after 24 hr by microtiter broth dilution method; assay type: functional
[10] = tested on: Staphylococcus aureus; test: Antibacterial activity against Staphylococcus aureus MTCC 96 after 24 hr by microtiter broth dilution method; assay type: functional; settings: MTCC 96, 24 h
[11] = tested on: N2a; test: Cytotoxicity against Mus musculus (mouse) Neuro2a cells by tetrazolium-reduction assay; assay type: functional, cell-based
[12] = tested on: HeLa; test: Cytotoxicity against Homo sapiens (human) HeLa cells by tetrazolium-reduction assay; assay type: functional, cell-based
[13] = tested on: HepG2; test: Cytotoxicity against Homo sapiens (human) HepG2 cells by tetrazolium-reduction assay; assay type: functional, cell-based
[14] = tested on: A549; test: Cytotoxicity against Homo sapiens (human) A549 cells by tetrazolium-reduction assay; assay type: functional, cell-based
[15] = tested on: Pichia sporocuriosa; test: Antifungal activity against Issatchenkia hanoiensis MTCC 4755 after 24 hr by microtiter broth dilution method; assay type: functional
[16] = tested on: [Candida] aaseri; test: Antifungal activity against Candida aaseri MTCC 1962 after 24 hr by microtiter broth dilution method; assay type: functional
[17] = tested on: Pichia kudriavzevii; test: Antifungal activity against Pichia kudriavzevii MTCC 3020 after 24 hr by microtiter broth dilution method; assay type: functional
[18] = tested on: Nakaseomyces glabratus; test: Antifungal activity against Candida glabrata MTCC 3019 after 24 hr by microtiter broth dilution method; assay type: functional
[19] = tested on: Candida parapsilosis; test: Antifungal activity against Candida parapsilosis MTCC 1744 after 24 hr by microtiter broth dilution method; assay type: functional
[20] = tested on: Candida albicans; test: Antifungal activity against Candida albicans MTCC 3018 after 24 hr by microtiter broth dilution method; assay type: functional; settings: MTCC 3018, 24 h
[21] = tested on: Candida albicans; test: Antifungal activity against Candida albicans MTCC 3017 after 24 hr by microtiter broth dilution method; assay type: functional
[22] = tested on: Candida albicans; test: Antifungal activity against Candida albicans MTCC 3958 after 24 hr by microtiter broth dilution method; assay type: functional; settings: MTCC 3958, 24 h
[23] = tested on: Candida albicans; test: Antifungal activity against Candida albicans MTCC 1637 after 24 hr by microtiter broth dilution method; assay type: functional
[24] = tested on: Candida albicans; test: Antifungal activity against Candida albicans MTCC 183 after 24 hr by microtiter broth dilution method; assay type: functional; settings: MTCC 183, 24 h
[25] = tested on: MDA-MB-231; test: Cytotoxicity against Homo sapiens (human) MDA-MB-231 cells by tetrazolium-reduction assay; assay type: functional, cell-based
[26] = tested on: MCF7; test: Cytotoxicity against Homo sapiens (human) MCF7 cells by tetrazolium-reduction assay; assay type: functional, cell-based
[27] = Yamadazyma aaseri, MTCC 1962, 24 h
[28] = Lodderomyces parapsilosis, MTCC 1744, 24 h

Compound | MIC [1] [µg/mL] | MIC [2] [µg/mL] | Activity [4] | Activity [5] | Activity [6] | MIC ([7]; MTCC 2453, 24 h) [µg/mL] | MIC [8] [µg/mL] | MIC [10] [µg/mL] | Activity [11] | Activity [12] | Activity [13] | Activity [14] | MIC ([15]; MTCC 4755, 24 h) [µg/mL] | MIC [16, 27] [µg/mL] | MIC ([17]; MTCC 3020, 24 h) [µg/mL] | MIC [20] [µg/mL] | MIC [22] [µg/mL] | MIC [24] [µg/mL] | IC50 [25] [µM] | MIC ([3]; MTCC 854, 24 h) [µg/mL] | also measured
CCCCCCCC(=O)Oc1ccc(/C=N/Cc2cccnc2)cc1 | 150 (≈ 443 µM) | 150 (≈ 443 µM) | inactive | inactive | inactive | 300 (≈ 886 µM) | 300 (≈ 886 µM) | 37.5 (≈ 111 µM) | inactive | inactive | inactive | inactive | 300 (≈ 886 µM) | 300 (≈ 886 µM) | 150 (≈ 443 µM) | 300 (≈ 886 µM) | 150 (≈ 443 µM) | 150 (≈ 443 µM) | 15.8 | – | MIC [3]: inactive; MIC ([9]; MTCC 121, 24 h): 300 µg/mL (≈ 886 µM); MIC ([18]; MTCC 3019, 24 h): 150 µg/mL (≈ 443 µM); MIC [19]: inactive; MIC [21]: inactive; MIC [23]: inactive; IC50 ([26]; Homo sapiens, MCF7, read-out: IC50): 12 µM
COc1cccc2c1C(=O)c1c(O)c3c(c(O)c1C2=O)C[C@@](O)(C(=O)CO)C[C@@H]3O[C@H]1C[C@H](N)[C@H](O)[C@H](C)O1 [DOXORUBICIN] | – | – | – | – | – | – | – | – | – | – | – | – | – | – | – | – | – | – | < 1 | – | –
CCCCCCCCCC(=O)Oc1ccc(/C=N/Cc2cccnc2)cc1 | 300 (≈ 819 µM) | 300 (≈ 819 µM) | inactive | inactive | inactive | 75 (≈ 205 µM) | 300 (≈ 819 µM) | 37.5 (≈ 102 µM) | inactive | inactive | inactive | inactive | 75 (≈ 205 µM) | 75 (≈ 205 µM) | 150 (≈ 409 µM) | 75 (≈ 205 µM) | 300 (≈ 819 µM) | 300 (≈ 819 µM) | – | 300 (≈ 819 µM) | MIC [9]: inactive; MIC ([18]; MTCC 3019, 24 h): 150 µg/mL (≈ 409 µM); MIC [19, 28]: 150 µg/mL (≈ 409 µM); MIC [21]: inactive; MIC ([23]; MTCC 1637, 24 h): 300 µg/mL (≈ 819 µM)
NC[C@@H]1O[C@H](O[C@H]2[C@@H](O)[C@H](O[C@@H]3[C@@H](O)[C@H](N)C[C@H](N)[C@H]3O[C@H]3O[C@H](CN)[C@@H](O)[C@H](O)[C@H]3N)O[C@@H]2CO)[C@H](N)[C@@H](O)[C@@H]1O [FRAMYCETIN] | – | – | – | – | – | 18.8 (≈ 30.5 µM) | 18.8 (≈ 30.5 µM) | 18.8 (≈ 30.5 µM) | – | – | – | – | – | – | – | – | – | – | – | – | MIC ([9]; MTCC 121, 24 h): 18.8 µg/mL (≈ 30.5 µM)
CCCCCCCCCCCCCC(=O)Oc1ccc(/C=N/Cc2cccnc2)cc1 | 300 (≈ 710 µM) | 300 (≈ 710 µM) | inactive | inactive | inactive | – | 75 (≈ 177 µM) | 75 (≈ 177 µM) | inactive | inactive | inactive | inactive | – | – | – | 300 (≈ 710 µM) | 300 (≈ 710 µM) | 300 (≈ 710 µM) | 26.6 | 300 (≈ 710 µM) | MIC [7]: inactive; MIC [9]: inactive; MIC [15]: inactive; MIC [16]: inactive; MIC [17]: inactive; MIC [18]: inactive; MIC [19]: inactive; MIC ([21]; MTCC 3017, 24 h): 300 µg/mL (≈ 710 µM); MIC ([23]; MTCC 1637, 24 h): 300 µg/mL (≈ 710 µM); IC50 ([26]; mcf7): Not Active
OC(Cn1cncn1)(Cn1cncn1)c1ccc(F)cc1F [FLUCONAZOLE] | 32 (≈ 104 µM) | 32 (≈ 104 µM) | – | – | – | – | – | – | – | – | – | – | 64 (≈ 209 µM) | 64 (≈ 209 µM) | 128 (≈ 418 µM) | 32 (≈ 104 µM) | 64 (≈ 209 µM) | 32 (≈ 104 µM) | – | 32 (≈ 104 µM) | MIC ([18]; MTCC 3019, 24 h): 64 µg/mL (≈ 209 µM); MIC [19, 28]: 16 µg/mL (≈ 52.2 µM); MIC ([21]; MTCC 3017, 24 h): 64 µg/mL (≈ 209 µM); MIC ([23]; MTCC 1637, 24 h): 64 µg/mL (≈ 209 µM)
CCCCCCC(=O)Oc1ccc(/C=N/Cc2cccnc2)cc1 | 150 (≈ 462 µM) | 75 (≈ 231 µM) | inactive | inactive | inactive | 37.5 (≈ 116 µM) | 150 (≈ 462 µM) | 37.5 (≈ 116 µM) | inactive | inactive | inactive | inactive | 75 (≈ 231 µM) | 75 (≈ 231 µM) | 75 (≈ 231 µM) | 75 (≈ 231 µM) | 150 (≈ 462 µM) | 300 (≈ 925 µM) | 15 | 300 (≈ 925 µM) | MIC ([9]; MTCC 121, 24 h): 300 µg/mL (≈ 925 µM); MIC [18]: inactive; MIC [19, 28]: 300 µg/mL (≈ 925 µM); MIC [21]: inactive; MIC ([23]; MTCC 1637, 24 h): 150 µg/mL (≈ 462 µM); IC50 ([26]; mcf7): Not Active
